“Also recorded” adds a separate entry of the source.
Legend:
[1] = biological target: T1, folate receptors (FRs) on KB cells (Homo sapiens, UniProt P15328); assay: Relative affinity assay (displacement of 3H-folic acid); assay type: binding; settings: relative to folic acid, set to 1, 100 nM 3H-folic acid
T1 construct: FR-positive KB cells were heavily seeded into 24-well cell culture plates; endogenous in cells; host or cells: KB cells
Description: The affinity for folate receptors (FRs) relative to folate was determined according to a previously described method (Westerhof, G. R., J. H. Schomagel, et al. (1995) Mol. Pharm. 48: 459-471) with slight modification. Briefly, FR-positive KB cells were heavily seeded into 24-well cell culture plates and allowed to adhere to the plastic for 18 h. Spent incubation media was replaced in designated wells with folate-free RPMI (FFRPMI) supplemented with 100 nM ^3H-folic acid in the absence and presence of increasing concentrations of test article or folic acid. Cells were incubated for 60 min at 37° C. and then rinsed 3 times with PBS, pH 7.4. Five hundred microliters of 1% SDS in PBS, pH 7.4, were added per well. Cell lysates were then collected and added to individual vials containing 5 mL of scintillation cocktail, and then counted for radioactivity. Negative control tubes contained only the ^3H-folic acid in FFRPMI (no competitor). Positive control tubes contained a final concentration of 1 mM folic acid, and CPMs measured in these samples (representing non-specific binding of label) were subtracted from all samples.

[2] = tested on: folate receptor-positive KB cells; assay type: cell-based, human
Description: The compounds described herein were evaluated using an in vitro cytotoxicity assay that predicts the ability of the drug to inhibit the growth of folate receptor-positive KB cells. The compounds were comprised of folate linked to a respective chemotherapeutic drug, as prepared according to the protocols described herein. The KB cells were exposed for up to 7 h at 37° C. to the indicated concentrations of folate-drug conjugate in the absence or presence of at least a 100-fold excess of folic acid. The cells were then rinsed once with fresh culture medium and incubated in fresh culture medium for 72 hours at 37° C. Cell viability was assessed using a ^3H-thymidine incorporation assay.
As shown in the figures herein, dose-dependent cytotoxicity was measurable, and in most cases, the IC50 values (concentration of drug conjugate required to reduce ^3H-thymidine incorporation into newly synthesized DNA by 50%) were in the low nanomolar range.

FR-positive M109 tumors = assay: Inhibition of tumor growth in mice, M109; assay type: in vivo, Balb/c mice
Description: The anti-tumor activity of the compounds described herein, when administered intravenously (i.v.) to tumor-bearing animals, was evaluated in Balb/c mice bearing subcutaneous M109 tumors. […] Tumor growth was measured using calipers at 2-day or 3-day intervals in each treatment group. Tumor volumes were calculated using the equation V=a×b^2/2, where “a” is the length of the tumor and “b” is the width expressed in millimeters.

[3] = Weight determination, Balb/c mice (M109 study); assay type: in vivo; settings: 1 μmol/kg and 2 μmol/kg TIW (6 doses)
Description: (§1) The percentage weight change of the mice was determined in mice (5 mice/group) on the indicated days post-tumor inoculation (PTI) as shown in the graph for the samples described in the related tumor volume assay.

[4] = tested on: FR-positive s.c. human xenograft KB tumors; assay: Inhibition of tumor growth in mice, KB; assay type: in vivo, nu/nu mice
Description: The anti-tumor activity of the compounds described herein, when administered intravenously (i.v.) to tumor-bearing animals, was evaluated in nu/nu mice bearing subcutaneous KB tumors. […] Tumor growth was measured using calipers at 2-day or 3-day intervals in each treatment group. Tumor volumes were calculated using the equation V=a×b^2/2, where “a” is the length of the tumor and “b” is the width expressed in millimeters.

[5] = Weight determination, nude mice; assay type: in vivo, nu/nu mice
Description: as §1

[6] = tested on: folate receptor negative 4T1 tumors; assay: 4T-1 tumor volume assay; assay type: in vivo, Balb/c mice; settings: 2 μmol/kg TIW for two weeks
Description: Six to seven week-old mice (female Balb/c strain) were obtained from Harlan, Inc., Indianapolis, Ind. The mice were maintained on Harlan's folate-free chow for a total of three weeks prior to the onset of and during this experiment. Folate receptor-negative 4T-1 tumor cells (1×10^6 cells per animal) were inoculated in the subcutis of the right axilla. […] Tumor growth was measured using calipers at 2-day or 3-day intervals in each treatment group. Tumor volumes were calculated using the equation V=a×b^2/2, where “a” is the length of the tumor and “b” is the width expressed in millimeters.

[7] = tested on: folate receptor positive human tumors; assay type: in vivo, nude mice; settings: 2 μmol/kg TIW, five animals
[8] = tested on: KB, 4T-1c12, and ID8-c115 tumor cell lines; assay: In vitro cytotoxic activity on three tumor cell lines; settings: 4T-1c12, ID8-c115, plus excess folic acid
[9] = 1 μmol/kg TIW for 2 weeks plus 40 μmol/kg EC20 (rhenium complex)
[10] = 1 μmol/kg TIW for 2 weeks, without EC20

T1 sequence (P15328 25-234): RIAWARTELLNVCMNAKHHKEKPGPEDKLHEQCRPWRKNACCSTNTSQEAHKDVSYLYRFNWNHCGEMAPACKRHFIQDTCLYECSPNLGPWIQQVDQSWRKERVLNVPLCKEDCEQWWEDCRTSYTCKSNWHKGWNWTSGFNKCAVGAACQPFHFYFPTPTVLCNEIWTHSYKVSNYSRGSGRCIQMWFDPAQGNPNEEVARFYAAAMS

SMILES	relative binding affinity at folic acid receptors [1]	potency of Example 11 relative to Example 9 ([2]; 3H-thymidine incorporation IC50 compared)	IC50 ([2]; KB cells, without excess folic acid, read-out: IC50, 3H-thymidine incorporation) [nM]	effect of excess folic acid on activity in 3H-thymidine incorporation ([2]; with excess folic acid)	growth of M109 tumors (FR-positive M109 tumors; 1 μmol/kg and 2 μmol/kg TIW (6 doses))	growth of M109 tumors, higher dose (FR-positive M109 tumors; 2 μmol/kg TIW (6 doses), also after dosing ended on day 20)	complete responses, M109 tumors (FR-positive M109 tumors; 2 μmol/kg TIW (6 doses), five animals)	weight of Balb/c mice [3]	complete responses, KB tumors ([4]; 1 μmol/kg TIW for 2 weeks (6 doses), alone)	complete responses, KB tumors, with EC20 [4, 9]	growth of KB tumors, with EC20 [4, 9]	growth of KB tumors [4, 10]	activity on established s.c. KB tumors versus controls ([4]; 1 μmol/kg TIW for two weeks, FIG. 13)	activity on large s.c. KB tumors ([4]; 2 μmol/kg TIW, 2 weeks, start at 250, 500 or 750 mm^3)	weight of nu/nu (nude) mice, with EC20 [5, 9]	weight of nu/nu (nude) mice [5, 10]	weight of nude mice ([5]; 2 μmol/kg TIW, FIG. 11)	activity on 4T1 tumors [6]	complete responses, FR-positive human tumors [7]	in vitro cytotoxic activity with excess folic acid [8]
CC[C@]1(O)C[C@@H]2CN(CCc3c([nH]c4ccccc34)[C@@](C(=O)OC)(c3cc4c(cc3OC)N(C)[C@H]3[C@@](O)(C(=O)NNC(=O)OCCSSC[C@H](NC(=O)[C@H](CN)NC(=O)[C@H](CC(=O)O)NC(=O)[C@H](CC(=O)O)NC(=O)[C@H](CC(=O)O)NC(=O)CC[C@H](NC(=O)c5ccc(NCc6cnc7nc(N)[nH]c(=O)c7n6)cc5)C(=O)O)C(=O)O)[C@H](O)[C@]5(CC)C=CCN6CC[C@]43[C@@H]65)C2)C1 [Example 9]	0.24	–	–	–	–	–	–	–	–	–	–	–	–	–	–	–	–	–	–	–
Nc1nc2ncc(CNc3ccc(C(=O)N[C@@H](CCC(=O)O)C(=O)O)cc3)nc2c(=O)[nH]1 [folic acid, reference compound]	1.0	–	–	–	–	–	–	–	–	–	–	–	–	–	–	–	–	–	–	–
CC[C@]1(O)CC2CN(CCc3c([nH]c4ccccc34)[C@@](C(=O)OC)(c3cc4c(cc3OC)N(C)[C@H]3[C@@](O)(C(=O)NNC(=O)OCCSSC[C@H](NC(=O)[C@H](CNC(=O)CCSSCCNC5=C(C)C(=O)C6=C(C5=O)[C@@H](COC(N)=O)[C@@]5(OC)[C@H]7N[C@H]7CN65)NC(=O)[C@H](CC(=O)O)NC(=O)[C@H](CC(=O)O)NC(=O)[C@H](CC(=O)O)NC(=O)CC[C@H](NC(=O)c5ccc(NCc6cnc7nc(N)[nH]c(=O)c7n6)cc5)C(=O)O)C(=O)O)[C@H](O)[C@]5(CC)C=CCN6CC[C@]43[C@@H]65)C2)C1 (stereo partly shown) [Example 11]	0.21	more than 10 fold	5	folic acid competes with the conjugates for binding to the folate receptor	inhibited the growth of solid tumors	strong inhibition of tumor growth	all five animals showed a complete response	little effect on the weight of the mice; also recorded: absence of an effect	5/5	0/5	inhibitory effect is prevented (competed against) by the EC20 rhenium complex	inhibits the growth of solid tumors	superior to controls	inhibits the growth of large tumors and gives a complete response in test animals	absence of an effect	did not affect the weight of the test animal significantly from controls; also recorded: absence of an effect	did not significantly affect the weight of the test animals; also recorded: absence of an effect	does not have any effect on the tumors compared to controls	complete response in five out of five test animals	reduced in the presence of excess folic acid
